For this assay, the target named is T1, squalene synthetase (Rattus norvegicus, UniProt Q02769).
T1 construct: from tissue; host or cells: rat liver microsomes (lovastatin-fed male Charles River CD rats)
T1 sequence (Q02769 1-416): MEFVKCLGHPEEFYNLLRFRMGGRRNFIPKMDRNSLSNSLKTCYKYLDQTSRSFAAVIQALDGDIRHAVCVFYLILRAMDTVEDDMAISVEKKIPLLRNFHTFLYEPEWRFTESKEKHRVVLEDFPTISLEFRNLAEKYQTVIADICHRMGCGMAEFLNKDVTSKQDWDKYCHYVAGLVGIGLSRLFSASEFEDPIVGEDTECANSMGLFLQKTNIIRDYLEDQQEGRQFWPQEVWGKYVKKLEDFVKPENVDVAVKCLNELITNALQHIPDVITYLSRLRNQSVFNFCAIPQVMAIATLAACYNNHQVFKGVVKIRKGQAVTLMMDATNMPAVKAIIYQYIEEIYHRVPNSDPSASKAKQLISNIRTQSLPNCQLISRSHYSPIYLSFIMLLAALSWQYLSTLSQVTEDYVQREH
Briefly: Squalene synthetase assay (rat liver microsomes, [4-14C]farnesyl-pyrophosphate). The class given is biochemical. To be noted: rat liver microsomal protein, 30° C., 20 minutes; read-out: IC50 squalene synthetase inhibition. How it is done: The intrinsic squalene synthetase inhibitory activity of representative compounds of this invention was measured by the standard in vitro protocol described below:
Male, Charles River CD rats (120 to 150 g) were fed a diet containing 0.1% lovastatin for 4 days. The livers from these rats were homogenized in 5 volumes (ml/g) of ice cold 50 Mm HEPES (4-(2-hydroxyethyl)-1-piperazine-ethanesulfonic acid), 5 mM EDTA(ethylenediaminetetraacetic acid) pH 7.5 with a Potter-Elvehjem type tissue grinder. The homogenate was centrifuged twice at 20,000×g for 15 minutes at 4,C, discarding the pellet each time. The supernatant was then centrifuged at 100,000×g for 1 hour at 4° C. The resulting microsomal pellet was resuspended in a volume of the above homogenizing buffer equal to one-fifth the volume of the original homogenate. This microsomal preparation has a protein concentration of about 7 mg/ml. The microsomal suspensions were stored in aliquots at -70° C. Squalene synthetase activity in these aliquots is stable for at least several months. […]
This assay mix was degassed under a vacuum and flushed with N2. […] Ten ml of scintillation fluid was added to the heptane solution and radioactivity was determined by liquid scintillation counting. […]
IC50 values were determined by plotting the log of the concentration of the test compound versus the percentage inhibition. […]
For orientation: Liver microsomes are a subcellular fraction often used to study metabolism.

With `C=C(CC[C@@]12C[C@@H](OC(=O)/C=C/C(C)CC(C)CC)[C@@](C(=O)O)(O1)[C@](O)(C(=O)O)[C@@H](C(=O)O)O2)C(OC(C)=O)C(C)Cc1ccccc1` (stereo partly shown) [Compound A], the 50% inhibitory concentration (IC50) amounted to 950 pM.

One may read the IC50 as the concentration that inhibits the measured activity by half.

The record behind these values is patent US5262435A, “Cholesterol lowering compounds” (Merck & Co., Inc., priority 1992, dated 1993).
